Values quoted from earlier work, collected in patent publication US20050281746A1, “Anticoagulant contrast media” (priority 2004, published 2005).

Tests used:
[1] = X-ray contrast agents grouped by structure
[2] = X-ray contrast agents grouped by structure; classes High / Low / Iso
[3] = X-ray contrast agents grouped by ionicity and benzene rings

SMILES | Viscosity (cps) [1] [cps] | Osmolality (mOsm/kg) [2] | Adverse effects [3]
CC(=O)N(CC(O)CN(C(C)=O)c1c(I)c(C(=O)NCC(O)CO)c(I)c(C(=O)NCC(O)CO)c1I)c1c(I)c(C(=O)NCC(O)CO)c(I)c(C(=O)NCC(O)CO)c1I (centres unmarked) [Iodixanol] | 26 | (280) mOsm/kg | Thrombotic
CC(=O)N(CC(O)CO)c1c(I)c(C(=O)NCC(O)CO)c(I)c(C(=O)NCC(O)CO)c1I (centres unmarked) [Iohexol] |  |  | Thrombotic
CN(C(=O)CO)c1c(I)c(C(=O)NCC(O)CO)c(I)c(C(=O)NCC(O)CO)c1I (centres unmarked) [Iomerpol] |  |  | Thrombotic
C[C@H](O)C(=O)Nc1c(I)c(C(=O)NC(CO)CO)c(I)c(C(=O)NC(CO)CO)c1I [Iopamidol] |  |  | Thrombotic
COCC(O)CN(C(C)=O)c1c(I)c(C(=O)NCC(O)CO)c(I)c(C(=O)NCC(O)CO)c1I (centres unmarked) [Iopentol] |  |  | Thrombotic
COCC(=O)Nc1c(I)c(C(=O)NCC(O)CO)c(I)c(C(=O)N(C)CC(O)CO)c1I (centres unmarked) [Iopromide] |  |  | Thrombotic
